Assay results from patent US11965039B2, “Compstatin analogues and their medical uses” (priority 2018, dated 2024).
Where two headings read alike, the source gives them in different places. Starred links: 1 amine or outer side, 2 acyl side, 3 side chain; linkers in the order of their positions; H or OH if unused. Positions of bridges follow the written chain, without caps; N, C: chain ends. Non-standard residues stand in square brackets, D forms with d. Residues, ends and D or L forms follow the SMILES beside them. Groups on a side chain read outwards from the residue. *: point of attachment. Trp(1-Me) = Cn1cc(C[C@H](N)C(=O)O)c2ccccc21; C18 diacid = O=C(O)CCCCCCCCCCCCCCCCC(=O)*; C16 diacid = O=C(O)CCCCCCCCCCCCCCC(=O)*; γGlu = O=C(O)[C@H](CCC(=O)[*:2])N[*:1]; 1Nal = N[C@@H](Cc1cccc2ccccc12)C(=O)O; AEEA = NCCOCCOCC(=O)O; Sar = CNCC(=O)O

Experiments:
[1] = system: classical complement pathway; experiment: In vitro haemolysis assay (inhibition of classical complement pathway); assay type: cell-based, human; details: human serum, sensitized sheep red blood cells
How it was run: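 Compound dilutions preincubated 15 min at room temperature with diluted human serum (titrated per batch for 70-90% maximal haemolysis), then antibody-sensitized sheep RBC (10^7/well) added for 30 min at 37 °C in Tris/casein buffer, pH 7.4. Stopped with EDTA; haemolysis read at 405 nm; IC50 by 4PL fit.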

[2] = Solubility test at 10 mg/mL (visual inspection and light scattering); assay type: physicochemical; details: for Solubility, Condition 1: Acetate pH 4; for Solubility, Condition 2: Acetate pH 5; for Solubility, Condition 3: Phosphate pH 6; for Solubility, Condition 4: Phosphate pH 7; for Solubility, Condition 5: Phosphate pH 7.5
[3] = Table 3, given as upper bounds, read-out: IC50, inhibition of hemolysis

For `CC[C@H](C)[C@@H]1NC(=O)[C@@H](NC(=O)[C@H](Cc2ccc(O)cc2)NC(=O)[C@H](CCC(=O)O)NC(=O)[C@H](CO)NC(C)=O)CSSC[C@@H](C(=O)N(C)CC(=O)N[C@@H](CCC(=O)O)C(=O)NCC(=O)N[C@@H](CCCCN)C(=O)N[C@@H](CCCCNC(=O)CC[C@H](NC(=O)CNC(=O)CC[C@H](NC(=O)CCCCCCCCCCCCCCCCC(=O)O)C(=O)O)C(=O)O)C(N)=O)NC(=O)[C@H](CCCNC(=N)N)NC(=O)[C@H](Cc2c[nH]cn2)NC(=O)[C@H](CCC(=O)O)NC(=O)CNC(=O)[C@H](Cc2c[nH]c3ccccc23)NC(=O)[C@H](CC(=O)O)NC(=O)[C@H](CCC(N)=O)NC(=O)[C@H](Cc2cn(C)c3ccccc23)NC1=O` [Compound 115] (Ac-SEYCI[Trp(1-Me)]QDWGEHRC[Sar]EGKK([γGlu-Gly-γGlu-C18 diacid])-NH2; disulfide 4-14), the IC50 [1, 3] was less than 0.25 µM, the “Solubility, Condition 1” value [2] was “− (“−” denotes lack of solubility at the given condition, as UV absorbance at 340 nm exceeds 0.1 AU and/or it is visibly turbid or contains particles)” and the “Solubility, Condition 2” value [2] was “− (“−” denotes lack of solubility at the given condition, as UV absorbance at 340 nm exceeds 0.1 AU and/or it is visibly turbid or contains particles)”. For the same molecule, the “Solubility, Condition 3” value [2] was “+ (“+” denotes solubility at the given condition, as determined by UV absorbance being less than 0.1 AU at 340 nm and the sample being clear when manually inspected)”, the “Solubility, Condition 4” value [2] was “+ (“+” denotes solubility at the given condition, as determined by UV absorbance being less than 0.1 AU at 340 nm and the sample being clear when manually inspected)” and the “Solubility, Condition 5” value [2] was “+ (“+” denotes solubility at the given condition, as determined by UV absorbance being less than 0.1 AU at 340 nm and the sample being clear when manually inspected)”.

For `CC[C@H](C)[C@@H]1NC(=O)[C@@H](NC(=O)[C@H](Cc2ccccc2)NC(C)=O)CSSC[C@@H](C(=O)N[C@H](C(=O)NCC(=O)N[C@@H](C)C(=O)N[C@@H](CCC(=O)O)C(=O)N[C@@H](CO)C(=O)N[C@@H](CCCCNC(=O)COCCOCCNC(=O)COCCOCCNC(=O)CC[C@H](NC(=O)CCCCCCCCCCCCCCC(=O)O)C(=O)O)C(N)=O)[C@@H](C)O)NC(=O)[C@H](CCCNC(=N)N)NC(=O)[C@H](Cc2c[nH]cn2)NC(=O)[C@H](CCC(=O)O)NC(=O)CNC(=O)[C@H](Cc2c[nH]c3ccccc23)NC(=O)[C@H](CC(=O)O)NC(=O)[C@H](CCC(N)=O)NC(=O)[C@H](Cc2cn(C)c3ccccc23)NC1=O` [Compound 102] (Ac-FCI[Trp(1-Me)]QDWGEHRCTGAESK([AEEA-AEEA-γGlu-C16 diacid])-NH2; disulfide 2-12), the IC50 [1, 3] was less than 0.1 µM, the “Solubility, Condition 1” value [2] was “− (“−” denotes lack of solubility at the given condition, as UV absorbance at 340 nm exceeds 0.1 AU and/or it is visibly turbid or contains particles)” and the “Solubility, Condition 2” value [2] was “+ (“+” denotes solubility at the given condition, as determined by UV absorbance being less than 0.1 AU at 340 nm and the sample being clear when manually inspected)”. For the same molecule, the “Solubility, Condition 3” value [2] was “+ (“+” denotes solubility at the given condition, as determined by UV absorbance being less than 0.1 AU at 340 nm and the sample being clear when manually inspected)”, the “Solubility, Condition 4” value [2] was “+ (“+” denotes solubility at the given condition, as determined by UV absorbance being less than 0.1 AU at 340 nm and the sample being clear when manually inspected)” and the “Solubility, Condition 5” value [2] was “+ (“+” denotes solubility at the given condition, as determined by UV absorbance being less than 0.1 AU at 340 nm and the sample being clear when manually inspected)”.

For `CC[C@H](C)[C@@H]1NC(=O)[C@@H](NC(=O)[C@H](Cc2ccc(O)cc2)NC(=O)[C@H](CCC(=O)O)NC(=O)[C@H](CO)NC(=O)CNC(=O)[C@H](CCC(=O)O)NC(=O)CCCCCCCCCCCCCCC(=O)O)CSSC[C@@H](C(=O)N(C)CC(=O)N[C@@H](CCC(=O)O)C(N)=O)NC(=O)[C@H](CCCNC(=N)N)NC(=O)[C@H](Cc2c[nH]cn2)NC(=O)[C@H](CCC(=O)O)NC(=O)CNC(=O)[C@H](Cc2c[nH]c3ccccc23)NC(=O)[C@H](CC(=O)O)NC(=O)[C@H](CCC(N)=O)NC(=O)[C@H](Cc2cn(C)c3ccccc23)NC1=O` [Compound 107] ({C16 diacid}-EGSEYCI[Trp(1-Me)]QDWGEHRC[Sar]E-NH2; disulfide 6-16), the IC50 [1, 3] was less than 0.1 µM, the “Solubility, Condition 1” value [2] was “− (“−” denotes lack of solubility at the given condition, as UV absorbance at 340 nm exceeds 0.1 AU and/or it is visibly turbid or contains particles)” and the “Solubility, Condition 2” value [2] was “− (“−” denotes lack of solubility at the given condition, as UV absorbance at 340 nm exceeds 0.1 AU and/or it is visibly turbid or contains particles)”. For the same molecule, the “Solubility, Condition 3” value [2] was “+ (“+” denotes solubility at the given condition, as determined by UV absorbance being less than 0.1 AU at 340 nm and the sample being clear when manually inspected)”, the “Solubility, Condition 4” value [2] was “+ (“+” denotes solubility at the given condition, as determined by UV absorbance being less than 0.1 AU at 340 nm and the sample being clear when manually inspected)” and the “Solubility, Condition 5” value [2] was “+ (“+” denotes solubility at the given condition, as determined by UV absorbance being less than 0.1 AU at 340 nm and the sample being clear when manually inspected)”.

For `CC[C@H](C)[C@H](NC(C)=O)C(=O)N[C@H]1CSSC[C@@H](C(=O)N[C@H](C(=O)NCC(=O)N[C@@H](C)C(=O)N[C@@H](CCC(=O)O)C(=O)N[C@@H](CO)C(N)=O)[C@@H](C)O)NC(=O)[C@H](CCCNC(=N)N)NC(=O)[C@H](Cc2c[nH]cn2)NC(=O)[C@H](CCC(=O)O)NC(=O)CNC(=O)[C@H](Cc2c[nH]c3ccccc23)NC(=O)[C@H](CC(=O)O)NC(=O)[C@H](CCC(N)=O)NC(=O)[C@H](Cc2c[nH]c3ccccc23)NC(=O)[C@H]([C@@H](C)CC)NC1=O` [Compound 15] (Ac-ICIWQDWGEHRCTGAES-NH2; disulfide 2-12), the IC50 [1, 3] was less than 0.1 µM, the IC50 ([1]; Table 4, valine 3 vs isoleucine 3 pairs, read-out: CP hemolysis IC50) was 0.047 µM and the “Solubility, Condition 1” value [2] was “+ (“+” denotes solubility at the given condition, as determined by UV absorbance being less than 0.1 AU at 340 nm and the sample being clear when manually inspected)”. The “Solubility, Condition 2” value [2] was “− (“−” denotes lack of solubility at the given condition, as UV absorbance at 340 nm exceeds 0.1 AU and/or it is visibly turbid or contains particles)”, the “Solubility, Condition 3” value [2] was “− (“−” denotes lack of solubility at the given condition, as UV absorbance at 340 nm exceeds 0.1 AU and/or it is visibly turbid or contains particles)” and the “Solubility, Condition 4” value [2] was “+ (“+” denotes solubility at the given condition, as determined by UV absorbance being less than 0.1 AU at 340 nm and the sample being clear when manually inspected)”. For the same molecule, the “Solubility, Condition 5” value [2] was “+ (“+” denotes solubility at the given condition, as determined by UV absorbance being less than 0.1 AU at 340 nm and the sample being clear when manually inspected)”.

With `CC[C@H](C)[C@@H]1NC(=O)[C@@H](NC(=O)[C@H](Cc2ccccc2)NC(=O)[C@H](N)Cc2ccc(O)cc2)CSSC[C@@H](C(=O)N[C@H](C(=O)NCC(=O)N[C@@H](C)C(=O)N[C@@H](CCC(=O)O)C(=O)N[C@@H](CO)C(N)=O)[C@@H](C)O)NC(=O)[C@H](CCCNC(=N)N)NC(=O)[C@H](Cc2c[nH]cn2)NC(=O)[C@H](CCC(=O)O)NC(=O)CN(C)C(=O)[C@H](Cc2c[nH]c3ccccc23)NC(=O)[C@H](CC(=O)O)NC(=O)[C@H](CCC(N)=O)NC(=O)[C@H](Cc2cn(C)c3ccccc23)NC1=O` [Compound 73, H-{d}YFC(1)I[1-Me-Trp]QDW[Sar]EHRC(1)TGAES-NH2] (H-[dY]FCI[Trp(1-Me)]QDW[Sar]EHRCTGAES-NH2; disulfide 3-13) the IC50 [1, 3] was less than 0.1 µM, the “Solubility, Condition 1” value [2] was “+ (“+” denotes solubility at the given condition, as determined by UV absorbance being less than 0.1 AU at 340 nm and the sample being clear when manually inspected)” and the “Solubility, Condition 2” value [2] was “− (“−” denotes lack of solubility at the given condition, as UV absorbance at 340 nm exceeds 0.1 AU and/or it is visibly turbid or contains particles)”. For the same molecule, the “Solubility, Condition 3” value [2] was “− (“−” denotes lack of solubility at the given condition, as UV absorbance at 340 nm exceeds 0.1 AU and/or it is visibly turbid or contains particles)”, the “Solubility, Condition 4” value [2] was “+ (“+” denotes solubility at the given condition, as determined by UV absorbance being less than 0.1 AU at 340 nm and the sample being clear when manually inspected)” and the “Solubility, Condition 5” value [2] was “+ (“+” denotes solubility at the given condition, as determined by UV absorbance being less than 0.1 AU at 340 nm and the sample being clear when manually inspected)”.

In the case of `CC[C@H](C)[C@@H]1NC(=O)[C@@H](NC(=O)[C@H](Cc2ccccc2)NC(C)=O)CSSC[C@@H](C(=O)N[C@H](C(=O)NCC(=O)N[C@@H](C)C(=O)N[C@@H](CCC(=O)O)C(=O)N[C@@H](CO)C(N)=O)[C@@H](C)O)NC(=O)[C@H](CCCNC(=N)N)NC(=O)[C@H](Cc2c[nH]cn2)NC(=O)[C@H](CCC(=O)O)NC(=O)CNC(=O)[C@H](Cc2c[nH]c3ccccc23)NC(=O)[C@H](CC(=O)O)NC(=O)[C@H](CCC(N)=O)NC(=O)[C@H](Cc2cccc3ccccc23)NC1=O` [Compound 63] (Ac-FCI[1Nal]QDWGEHRCTGAES-NH2; disulfide 2-12), the IC50 [1, 3] is reported as less than 0.1 µM, the “Solubility, Condition 1” value [2] is reported as “− (“−” denotes lack of solubility at the given condition, as UV absorbance at 340 nm exceeds 0.1 AU and/or it is visibly turbid or contains particles)” and the “Solubility, Condition 2” value [2] is reported as “− (“−” denotes lack of solubility at the given condition, as UV absorbance at 340 nm exceeds 0.1 AU and/or it is visibly turbid or contains particles)”. For the same molecule, the “Solubility, Condition 3” value [2] was “+ (“+” denotes solubility at the given condition, as determined by UV absorbance being less than 0.1 AU at 340 nm and the sample being clear when manually inspected)”, the “Solubility, Condition 4” value [2] was “+ (“+” denotes solubility at the given condition, as determined by UV absorbance being less than 0.1 AU at 340 nm and the sample being clear when manually inspected)” and the “Solubility, Condition 5” value [2] was “+ (“+” denotes solubility at the given condition, as determined by UV absorbance being less than 0.1 AU at 340 nm and the sample being clear when manually inspected)”.
